# The supplement of paper PMC11208160
# Test: recombinant barcode read abundance after kanamycin selection (control-corrected) (log10(CPM+1)); higher = more efficient recombination; sequences stand for … in AGTGCAGAGAAAATCGGCCAGTTTTCTCTGCCTGCAGTCCGCATGCCGT…AGATTTATGCAGCGGACTGCCTTTCTCCCAAAGTGATAAACCGGACAGTATCATGGACCGGTTTTCCCGGTAATCCGTATTTGCAAGGTTGGTTTCACT; site = the 11-nt target
# In short: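 Targets and IS621 bridge RNA target-binding loops were paired in oligos, each with a promoter, a barcode and the J23119-driven first 104 bridge RNA bases. A vector carrying the remaining 73 bp and a T7-inducible recombinase received these by Gibson cloning, and the pool was co-electroporated into E. coli with a donor plasmid. Duplicate plates contained chloramphenicol/ampicillin LB agar (control) or chloramphenicol/ampicillin/kanamycin with 0.1 mM IPTG. Recombination efficiency comes from averaged, control-corrected counts per million of recombinant-junction barcodes, reported as log10(CPM+1).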
# 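Further: IS621 recombinase and bridge RNA in Escherichia coli cells.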
row,Sequence,recombinant barcode read abundance (log10)
1,TAGTGCTCTTGGGTTCTAACCTGTTGCCC (site TAGTGCTCTTG),0.116
2,TCACACTCTTGGGTTCTAACCTGTTGCCT (site TCTCACTCTAG),0.114
3,AACTCTCCTTGGGTTCTAACCTGTTGCAT (site AACTGTCCTAT),0.188
4,TCTAAGTCTTGGGTTCTAACCTGTTGCCC (site TCTAAGTCTAG),0.132
5,CCTGGGGCTTGGGTTCTAACCTGTTGCCT (site CCTGGTCCTAG),0.189
6,ACTTAGCCTTGGGTTCTAACCTGTTGCAT (site ACTTAGCCTAG),1.48
7,GGGACATCTTGGGTTCTAACCTGTTGCCT (site GGGGCATCTAG),0.015
8,TAATGTACTTGGGTTCTAACCTGTTGCTT (site TAAGGTACTAA),0.195
9,AATTGTCCTTGGGTTCTAACCTGTTGCTT (site AATTGTCCTAG),0.0453
10,TGCCTCTCTTGGGTTCTAACCTGTTGCTA (site GTTAGACCTAG),0.0422
11,GTACCGCCTTGGGTTCTAACCTGTTGCCT (site GTACGGCCTAG),0.122
12,TAGCACCCTTGGGTTCTAACCTGTTGCCA (site TAGCACCCTCG),0.218
13,GGGGAGCCTTGGGTTCTAACCTGTTGCGG (site GGGGAGCCTCC),2.38
14,ACTTGCTCTTGGGTTCTAACCTGTTGCTT (site ACTTGCTCTAA),0.136
15,AGGCGCCCTTGGGTTCTAACCTGTTGCAG (site AGGCGCCCTCT),1.4
16,ACGGTCACTTGGGTTCTAACCTGTTGCCT (site AGGGTCACTAG),0.264
17,CGGTACACTTGGGTTCTAACCTGTTGCGG (site CGGTACACTCC),3.14
18,GGTCGACCTTGGGTTCTAACCTGTTGCCT (site TGTCGACCTAG),0.175
19,CCGGCCACTTGGGTTCTAACCTGTTGCCT (site CTGGCCACTAG),0.155
20,GGCAGATCTTGGGTTCTAACCTGTTGCTT (site GGCAGGTCTAA),0.0248
21,CAGAAGCCTTGGGTTCTAACCTGTTGCCT (site CAGAAGCCTAG),1.65
22,AGTTGTCCTTGGGTTCTAACCTGTTGCTT (site AGTTGTCCTAT),0.0416

row,Sequence,recombinant barcode read abundance (log10)
1,ATGGGCACTTGGGTTCTAACCTGTTGCCT (site ATGGGCACTAG),0.639
2,CGTGAACCTTGGGTTCTAACCTGTTGCGT (site CGTTAACCTAC),0.751
3,TATATAACTTGGGTTCTAACCTGTTGCCT (site TATACAACTAG),0.0941
4,GAGTAGTCTTGGGTTCTAACCTGTTGCCT (site GAGAAGTCTAG),0.0847
5,CTAACCTCTTGGGTTCTAACCTGTTGCAT (site CTAACCTCTAT),2.1
6,TAGTTTGCTTGGGTTCTAACCTGTTGCCG (site TAGTTTGCTCG),0.743
7,TAGGCTACTTGGGTTCTAACCTGTTGCAT (site TAGGCTACTTT),0.00693
8,CTCTGTCCTTGGGTTCTAACCTGTTGCTA (site CTCTGTCCTTG),0.0487
9,TTCGGCTCTTGGGTTCTAACCTGTTGCTA (site TTCGGCTCTTA),0.605
10,ACTGGACCTTGGGTTCTAACCTGTTGCTT (site ACTGGACCTAA),2.23
11,TATTCACCTTGGGTTCTAACCTGTTGCCT (site TATTCACCTAG),0.358
12,CATTCAACTTGGGTTCTAACCTGTTGCCG (site CATTCAACTAG),0.0546
13,CGTTCATCTTGGGTTCTAACCTGTTGCCT (site CGCTCATCTAG),0.0301
14,GTCAGCTCTTGGGTTCTAACCTGTTGCTA (site GACCGCTCTTA),0.127
15,GAGTCTCCTTGGGTTCTAACCTGTTGCGG (site GAGTCTCCTCC),0.316
16,GCCCGATCTTGGGTTCTAACCTGTTGCCT (site GCCCGATCTAG),1.42
17,ACATTGTCTTGGGTTCTAACCTGTTGCCT (site ACTTTGTCTAG),0.284
18,TCTTGGACTTGGGTTCTAACCTGTTGCTA (site TCTTGGACTAA),0.214
19,CCATAGTCTTGGGTTCTAACCTGTTGCTT (site GCACAGTCTAA),0.052
20,TAGTCATCTTGGGTTCTAACCTGTTGCTC (site TAGACATCTGA),0.0065
21,TATTGGACTTGGGTTCTAACCTGTTGCAG (site TATTGGACTGT),0.0393
22,TTGGAGGCTTGGGTTCTAACCTGTTGCCT (site AGCAGTACTTA),0.0388

row,Sequence,recombinant barcode read abundance (log10)
1,GTGAGGACTTGGGTTCTAACCTGTTGCCT (site CTGAGGACTAG),0.133
2,GGGCCTTCTTGGGTTCTAACCTGTTGCAT (site GGGACTTCTAT),0.24
3,GTATGATCTTGGGTTCTAACCTGTTGCCT (site GTATGAGCTAG),0.742
4,TAGTCGACTTGGGTTCTAACCTGTTGCTT (site TAGCCGACTAA),0.307
5,CGTGCGTCTTGGGTTCTAACCTGTTGCCT (site AGTGCGTCTAG),0.208
6,TACCGCTCTTGGGTTCTAACCTGTTGCTT (site TACTGCTCTAA),0.158
7,CACGACCCTTGGGTTCTAACCTGTTGCCT (site CAAGACCCTAG),0.0526
8,GGACCTCCTTGGGTTCTAACCTGTTGCCT (site GGACCTCCTAG),1.32
9,GGTACTACTTGGGTTCTAACCTGTTGCCA (site GGTACTACTTG),0.152
10,CCTTGGGCTTGGGTTCTAACCTGTTGCTT (site CTTTGGCCTAA),0.305
11,GCCCTGCCTTGGGTTCTAACCTGTTGCGT (site GCCCTGCCTAC),2.62
12,ATGGGCCCTTGGGTTCTAACCTGTTGCTC (site ATGGGCCCTTA),0.0312
13,GATCCTACTTGGGTTCTAACCTGTTGCCA (site GATGCTACTTG),0.0449
14,TAAGATGCTTGGGTTCTAACCTGTTGCGG (site TAAGATGCTCC),1.78
15,CTAACTCCTTGGGTTCTAACCTGTTGCTG (site CTAACTGCTCC),0.524
16,CTAAGAACTTGGGTTCTAACCTGTTGCCT (site CTAAGAACTAC),1.05
17,CGATCGACTTGGGTTCTAACCTGTTGCAG (site CGACCGACTCT),0.401
18,TCCGTGTCTTGGGTTCTAACCTGTTGCCT (site TCCGTGCCTAG),0.241
19,ATGAAGACTTGGGTTCTAACCTGTTGCCT (site ATTAAGACTAG),1.12
20,CCTAACACTTGGGTTCTAACCTGTTGCCT (site CCTAACACTAG),0.501
21,GAGTGGCCTTGGGTTCTAACCTGTTGCGT (site GAGTGGCCTAT),1.32
22,CAGACTTCTTGGGTTCTAACCTGTTGCCT (site CCGACTTCTAG),0.375

row,Sequence,recombinant barcode read abundance (log10)
1,CTCCGGCCTTGGGTTCTAACCTGTTGCTT (site CTCCGGCCTAA),0.521
2,CGTGGTCCTTGGGTTCTAACCTGTTGCCT (site CGTGGTCCTAG),1.26
3,GAGACGGCTTGGGTTCTAACCTGTTGCTT (site GAGTCGGCTAA),0.206
4,CTAAGAACTTGGGTTCTAACCTGTTGCCT (site CTAAGAACTAG),0.604
5,TCCTAGTCTTGGGTTCTAACCTGTTGCAG (site TCCTAGTCTCT),0.392
6,TATGCGGCTTGGGTTCTAACCTGTTGCCT (site TATGTGGCTAG),0.11
7,GGGGTTCCTTGGGTTCTAACCTGTTGCTT (site GGGGTTCCTAG),1.36
8,ACAGAGACTTGGGTTCTAACCTGTTGCGC (site ACACAGACTGC),0.127
9,ACATGAACTTGGGTTCTAACCTGTTGCCT (site ACATGAACTAG),1.47
10,GTCGTTGCTTGGGTTCTAACCTGTTGCCT (site GTCGTTGCTAG),1.07
11,GTGAGGACTTGGGTTCTAACCTGTTGCCT (site ATGAGGACTAG),0.739
12,CACGCTTCTTGGGTTCTAACCTGTTGCTA (site CACGCTTCTTA),1.01
13,CCGAATCCTTGGGTTCTAACCTGTTGCCT (site CCGAGTCCTAG),0.122
14,GACTGTTCTTGGGTTCTAACCTGTTGCCT (site GACTGTTCTAG),0.13
15,AGCGAATCTTGGGTTCTAACCTGTTGCCT (site AGAGAATCTAG),0.0521
16,GTATATACTTGGGTTCTAACCTGTTGCCT (site GTCTATACTAG),0.112
17,GGTCGCCCTTGGGTTCTAACCTGTTGCGT (site TCGTAGACTTA),0.0116
18,GGGGTTCCTTGGGTTCTAACCTGTTGCCT (site GGGGTTCCTAC),1.56
19,GCAGGTACTTGGGTTCTAACCTGTTGCCT (site GCAGGTACTAG),1.17
20,TAGGATTCTTGGGTTCTAACCTGTTGCGC (site ACCATACCTAT),0.114
